In publication PMC12408683 (Archives of Toxicology, 2025):
Read-outs that look alike come from different tables or passages of the source.

Key:
HepG2 cells [1] = experiment: DNA adduct quantification by UHPLC-MS/MS in HepG2 cells; format: cell-based, human; details: for E3′-N^2-dG adducts / E3′-N^6-dA adducts: 24 h
Description: (§1) To this end, 6 × 10^6 cells were seeded per 10 cm dish and allowed to attach overnight. […] The pellets were washed with phosphate-buffered saline (PBS) and stored at – 20 °C until further use. DNA was isolated as described previously (Carlsson et al. [2022]) and DNA concentration as well as purity were determined with the NanoDrop ND1000 photometer (Thermo Scientific, Waltham MA, USA). As a next step, 30 µg DNA of each sample was digested overnight at 37 °C with micrococcal nuclease (Worthington, Lakewood NJ, USA) and phosphodiesterase II (Worthington, Lakewood NJ, USA) as reported (Carlsson et al. [2022]). Afterwards ^15N-E3′-N^2-dG (2 nM), ^15N-E3′-N^6-dA (0.5 nM) as well as ^15N-dG (20 µM) (Silantes, München, Germany) were added as internal standards. The isotope-labelled internal DNA adduct standards and external DNA adduct standard were synthesised as previously described (Schumacher et al. [2013]). Subsequently, the samples were incubated overnight at 37 °C with alkaline phosphatase (Sigma-Aldrich, St. Louis MO, USA), followed by precipitation of remaining proteins with ethanol and centrifugation at 20,800 g. The supernatant was narrowed down in a vacuum centrifuge (Eppendorf concentrator plus, Eppendorf, Hamburg, Germany) at 60 °C and 1400 g for 2–4 h and the resulting pellet was dissolved in 75% methanol. After another centrifugation step, the solution was transferred into glass vials with inserts.
(§2) The DNA adducts were measured via UHPLC–MS/MS with a multiple reaction method (MRM) using a UHPLC system (Agilent 1290 infinity; Agilent Technologies, Santa Clara CA, USA) consisting of a binary pump (G4220A), an autosampler (G4226A) and a column oven (G1316C). The eluent consisted of 0.1% acetic acid and UHPLC grade methanol. Injection volume was 5 μL and the flow rate was 0.2 mL/min. The gradients are shown in the supporting information, Fig. 2A, B. As a separation column, a Waters XTerraMS C18 2.5 µm (2.1 × 50 mm) was used at 35 °C. The UHPLC was coupled to the Sciex QTrap 5500 MS using a declustering potential of 91 V, an entrance potential of 10 V, a collision energy of 33 V, a collision cell entrance potential of 10 V, curtain gas of 25 psi, an ion spray voltage of 5500 V, a temperature of 550 °C, and an ion source gas of 35 psi as specific mass spectrometry parameters. Measurement was performed with an electron spray ionisation in positive mode using MRM to quantify both adducts. For further quantification of the adduct levels, a standard curve of both adducts was carried along ranging from 60 to 100,000 pM, also containing isotope-labelled standards for reference. Furthermore, the dG-content of each sample was determined via LC–MS/MS with stable isotope dilution analysis to normalise the adduct levels to the overall nucleoside content (Carlsson et al. [2022]; Stegmüller et al. [2018]). The limit of detection (LOD) and the limit of quantification (LOQ) for E3′-N^2-dG and E3′-N^6-dA are provided in supplementary Table S1. The specific compound parameters for both methods are provided in supplementary Table S2.
(§3) As benchmark response (BMR) for all concentration–response curves (adducts, micronuclei), a 2.0-fold increase vs. solvent control was used (BMC100, critical effect size = 1). The determined BMC100 and the corresponding upper and lower boundary (BMCU and BMCL, respectively) of the 90% confidence interval (CI) were used for potency comparison.

HepG2 cells [2] = details: 24 h
Description: γH2AX and p53 levels were assessed by SDS-PAGE and western blotting as reported (Fahrer et al. [2013]). To this end, 5 × 10^5 cells were seeded in 3.5-cm dishes to adhere overnight. […] Proteins were separated by SDS-PAGE followed by the transfer onto a nitrocellulose membrane using the wet blot method. The successful transfer was confirmed by Ponceau S staining of the membrane before blocking with 5% non-fat dry milk in Tris-buffered saline with Tween-20 (MP-TBS-T). Subsequently, the membrane was incubated with the respective primary antibodies overnight at 4 °C. The membranes were washed three times for 5 min with TBS-T before incubating with the respective secondary antibody coupled with horseradish peroxidase. The detection was carried out using the Western Lightning Plus-ECL reagent (Perkin Elmer, Waltham MA, USA) with the c300 chemiluminescence imager (Azure Biosystems, Dublin CA, USA). The used primary and secondary antibodies are detailed in supplementary Table S3.

[3] = system: primary rat hepatocytes (PRH); details: read-out: EC50 (cell viability); 24 h
Description: The cell viability was calculated relative to the negative control (set to 100%).

HepaRG cells and PRH = system: HepaRG cells and PRH; parameters: method as in Yang et al. 2020; details: 50 µM ES or 1′OH-ES; ref Yang et al. 2020; cited from earlier work
HepG2 cells [4] = experiment: Resazurin reduction assay (cytotoxicity) in HepG2 cells; details: for EC50: read-out: EC50 (cell viability)
HepG2-CYP1A2 cells = experiment: DNA adduct quantification by UHPLC-MS/MS in HepG2-CYP1A2 cells; format: cell-based, human
Description: as §1, §2, §3

mice = system: mice; parameters: method as in Suzuki et al. 2012b; details: up to 300 mg/kg bw and day over 13 weeks; ref Suzuki et al. 2012b; cited from earlier work
male F344 gpt delta rats = system: male F344 gpt delta rats; parameters: method as in Suzuki et al. 2012a; details: top dose 200 mg ES/kg bw for 4 weeks; ref Suzuki et al. 2012a; cited from earlier work
[5] = endpoint E3′-N^2-dG, BMR 2.0-fold increase, 90% CI
[6] = endpoint E3′-N^2-dG, BMR 2.0-fold increase, 90% CI, PROAST

C=CC(O)c1ccc(OC)cc1 (centres unmarked) [1′OH-ES, 1′-hydroxyestragole]
E3′-N^2-dG adducts (HepG2 cells [1]; 0.1 µM 1′OH-ES): 24 adducts/10^8 ncs | E3′-N^2-dG adducts (HepG2 cells [1]; 25 µM 1′OH-ES): 2237 adducts/10^8 ncs | E3′-N^6-dA adducts (HepG2 cells [1]; 25 µM 1′OH-ES): 64 adducts/10^8 ncs | E3′-N^2-dG adducts (HepG2 cells [1]; 35 µM 1′OH-ES): 6881 adducts/10^8 ncs | E3′-N^6-dA adducts (HepG2 cells [1]; 35 µM 1′OH-ES): 139 adducts/10^8 ncs | E3′-N^2-dG levels vs equimolar ES concentrations (HepG2 cells [1]; 1′OH-ES in HepG2 vs ES in HepG2-CYP1A2, 24 h): 10–50 fold | BMC100 (HepG2 cells [1]; endpoint E3′-N^2-dG, BMR 2.0-fold increase): 2.65 µM | BMCL (HepG2 cells [1]; [5]): 0.75 µM | BMCU (HepG2 cells [1]; [5]): 5.65 µM | genotoxic and mutagenic potency compared to the parent compound ES (HepG2 cells [1]; from BMC modelling): 20–30 fold | E3′-N^2-dG adduct level corresponding to significant cytotoxicity (HepG2 cells [1]; highest 1′OH-ES concentration): 6881 adducts/10^8 ncs | E3′-N^2-dG adduct level at which a twofold MN increase was observed (HepG2 cells [1]; molecular dosimetry, flow cytometry and CBMN): 420–2237 adducts/10^8 ncs | concentrations reaching the adduct level required to impair viability (HepG2 cells [1]; more than 6000 E3′-N^2-dG adducts/10^8 ncs): ≥ 35 µM | E3′-N^2-dG adducts required to impair viability and trigger cell death (HepG2 cells [1]; not reached by ES): more than 6000 adducts/10^8 ncs | γH2AX increase (HepG2 cells [2]; 5 µM 1′OH-ES): 2.2 fold | p53 induction (HepG2 cells [2]; 50 µM 1′OH-ES): sevenfold | γH2AX induction (HepG2 cells [2]; 50 µM 1′OH-ES): 4.8 fold | EC50 [3]: 23 µM | E3′-N^2-dG levels vs ES (HepaRG cells and PRH): 33–40 fold | cell viability (HepG2 cells [4]; 50 µM 1′OH-ES, 24 h treatment + 72 h recovery): above 70% | EC50 (HepG2 cells [4]; 24 h): 43 µM | EC50 (HepG2 cells [4]; 72 h): 27 µM

C=CCc1ccc(OC)cc1 [ES, estragole]
E3′-N^2-dG adducts, change vs maximum level (HepG2-CYP1A2 cells; 2 mM ES (highest treatment group), 24 h): moderate decline | E3′-N^6-dA adduct (minor DNA adduct) (HepG2-CYP1A2 cells; any tested ES concentration (up to 2 mM), 24 h): neither quantifiable nor detectable | BMCL (HepG2-CYP1A2 cells; [6]): 18.9 µM | BMCU (HepG2-CYP1A2 cells; [6]): 104 µM | BMC100 (HepG2-CYP1A2 cells; endpoint E3′-N^2-dG, BMR 2.0-fold increase, PROAST): 63.3 µM | clastogenicity (mice): clastogenicity was not detected | mutagenicity, increase vs. control (male F344 gpt delta rats): twofold
